This note sets out measurements from PMC4924691, “Inhibition of the p53/hDM2 protein-protein interaction by cyclometallated iridium(III) compounds” (Oncotarget, 2016).

For assay [1], the system named is T1, p53/hDM2 interaction.
T1 construct: host or cells: A375 cells
The assay is described as follows: Pull-down assay of p53-Flag/hDM2-myc in A375 cells. The assay is classed as cell-based, human. The settings on record: for effect of isolated ligands on the p53/hDM2 interaction: Supplementary Figure S4. The protocol:
A pull-down assay was conducted to further examine the effect of 1 on the p53/hDM2 interaction. A375 cells were co-transfected with cDNAs encoding p53-Flag and hDM2-myc fusion proteins. After 6 h of treatment with NVP-CGM097 or 1, p53/hDM2 complexes were immunoprecipitated using anti-Flag magnetic beads and analysed by immunoblotting.
A375 cells seeded in 6-well plates were co-transfected with pcDNA-Flag-p53 (Addgene) and pCMV-myc3-hDM2 (Addgene) for 6 h using TurboFect transfection reagent following the instruction from manufacturer. Cells were then cultured in Dulbecco's Modified Eagle's Medium (DMEM) complete medium overnight. Serial dilutions of organometallic compounds in low FBS buffer were placed into the wells, and incubated with cells for additional 6 h. Protein samples were collected, and the concentration in the supernatant was determined with the bicinchoninic acid (BCA) method. The […] of p53/hDM2 in the protein samples were pulled down using anti-Flag magnetic beads to capture the FLAG fusion proteins (Sigma) as previously described. The protein-binding beads were washed three time with TBS buffer (50 mM Tris HCl, 150 mM NaCl, pH 7.4) to remove non-specifically bound proteins, and subsequently subjected to the sodium dodecyl sulfate-polyacrylamide gel electrophoresis (SDS-PAGE) by detection with anti-Flag (1:1000, Sigma-Aldrich) and anti-myc antibodies (1:1000, Beyotime).

Assay [2] has as its system p53 and hDM2 protein expression levels. Nature of the assay: Immunoblotting of p53 and hDM2 protein expression in A375 cells. Type of assay: cell-based, human. The note with it: for effect on hDM2 and p53 protein expression levels: 6 h, up to the highest concentration of 1 μM. The protocol: To assess whether 1 suppressed p53 or hDM2 protein expression levels, resulting in a decrease in the levels of precipitated protein detected in the pull-down assay, an immunoblotting experiment was performed.
On the technique in general: A western blot detects proteins with antibodies after separation by electrophoresis.

Assay [3] deals with T2, p53/hDM2 interaction (Homo sapiens, UniProt Q00987).
T2 construct: Expression of hDM2_17–126 recombinant fragment was performed as described previously; made in house
Nature of the assay: Fluorescence anisotropy (FA) assay, displacement of p53_15–31Flu from hDM2_17–126. The note with it: for IC50 against the p53/hDM2 interaction as determined by a FA assay / IC50: 150 nM hDM2_17–126, 50 nM p53_15–31Flu, 30 min, room temperature; for effect on fluorescence anisotropy / p53/hDM2 interaction: serial dilutions of compound, hDM2_17–126 with p53_15–31Flu; for IC50: read-out: IC50 against the p53/hDM2 interaction as determined by a FA assay. The assay is classed as binding. As for the experimental part: To experimentally test the library of the organo-metallic iridium(III) compounds as p53/hDM2 PPI inhibitors, a fluorescence anisotropy (FA) assay was performed as previously described. hDM2_17–126 (recombinant fragment) was incubated with fluorescein-labelled p53 peptide (p53_15–31Flu) and serial dilutions of the organometallic iridium(III) compounds.
Figure 2 FA titration data of 1 1 was incubated with 150 nM hDM2_17–126 recombinant fragment and 50 nM fluorescein-labelled p53 peptide (p53_15–31Flu), and fluorescence anisotropy was measured at 480ex/535em.
Expression of hDM2_17–126 recombinant fragment was performed as described previously. Fluorescence anisotropy assays were used to study the displacement of p53 from hDM2 by organometallic compounds. The experiments were performed in triplicate in a volume of 60 μL of the assay buffer (40 mM Na3PO4, pH 7.50, 200 mM NaCl, 0.02 mg/mL BSA) in black flat-bottom 384-well plates. Different concentrations of organometallic compounds were diluted in the assay buffer containing 150 nM hDM2 and 50 nM p53_15–31Flu (Ac-[…](Flu)-NH2, Peptide Protein Research Ltd.) and incubated at room temperature for 30 min. The intensity and anisotropy was monitored at 480ex/535em ([…] bandwidth) using a Perkin Elmer EnvisionTM 2103 MultiLabel plate reader. The data was analyzed according to published methods.
On the technique in general: In fluorescence polarisation assays a small probe gives low polarisation when free and higher when bound to something large.

For assay [4], the target named is T3, hDM2(17-126) recombinant fragment (human, UniProt Q00987 17-126).
T3 construct: human double minute 2 protein (hDM2, MDM2), human, residues 17-126; also called human double minute 2 protein; source: recombinant fragment, expressed as described previously [33]
Nature of the assay: fluorescence polarisation; fluorescence anisotropy competition: 150 nM hDM2(17-126) and 50 nM p53(15-31)Flu with serial dilutions of iridium(III) compounds; 40 mM Na3PO4 pH 7.50, 200 mM NaCl, 0.02 mg/mL BSA; room temperature, 30 min; 480ex/535em. The note with it: both partners purified.

For `CCc1ccc(-c2ccccn2)cc1` [eppy, 2-(4-ethylphenyl)pyridine], the “effect of isolated ligands on the p53/hDM2 interaction” value in assay [1] is recorded as “Neither eppy nor dcphen ligands were found to have a significant effect”. In assay [2], the “effect on hDM2 and p53 protein expression levels” value was “Neither eppy nor dcphen ligands were found to have a significant effect”.

Consider `F[P-](F)(F)(F)(F)F.[Ir+3].[c-]1ccccc1-n1cccn1.[c-]1ccccc1-n1cccn1.c1ccc(-c2ccccn2)nc1` [Compound 3, 2, 2′-bipyridinebis(1-phenyl-1H-pyrazole)iridium(III) hexafluorophosphate], for which, in assay [3], the “IC50 against the p53/hDM2 interaction as determined by a FA assay” value is given as “No noticeable binding” and the “effect on fluorescence anisotropy / p53/hDM2 interaction” value was “no noticeable effect”. Turning to `Clc1cc2ccc[n+]3c2c2c1ccc[n+]2[Ir-3]312([c]3ccccc3-c3sc4ccccc4[n+]31)[c]1ccccc1-c1sc3ccccc3[n+]12.F[P-](F)(F)(F)(F)F` [Compound 4, 5-chloro-1, 10-phenanthrolinebis(2-phenylbenzo[d]thiazole)iridium(III) hexafluorophosphate], in assay [3], the “IC50 against the p53/hDM2 interaction as determined by a FA assay” value is listed as “No noticeable binding” and the “effect on fluorescence anisotropy / p53/hDM2 interaction” value is reported as “no noticeable effect”. For `Clc1ccnc2c1ccc1c(Cl)ccnc12` [dcphen, 4,7-dichloro-1, 10-phenanthroline], in assay [1], the “effect of isolated ligands on the p53/hDM2 interaction” value was “Neither eppy nor dcphen ligands were found to have a significant effect”. The “effect on hDM2 and p53 protein expression levels” value in assay [2] is recorded as “Neither eppy nor dcphen ligands were found to have a significant effect”. For the molecule `Clc1cc2nc3c4cccnc4c4ncccc4c3nc2cc1Cl.F[P-](F)(F)(F)(F)F.Fc1c[c-]c(-c2ccccn2)c(F)c1.Fc1c[c-]c(-c2ccccn2)c(F)c1.[Ir+3]` [Compound 6, 11, 12-dichlorodipyrido[3,2-a:2′,3′-c]phenazinebis(2-(2,4-difluorophenyl)pyridine)iridium(III) hexafluorophosphate], in assay [3], the IC50 turned out to be 33 µM and the “effect on fluorescence anisotropy / p53/hDM2 interaction” value is “decreased significantly”.

`F[P-](F)(F)(F)(F)F.c1cc[c]2c(c1)-c1ccc3ccccc3[n+]1[Ir-3]213([c]2ccccc2-c2ccc4ccccc4[n+]21)[n+]1cccc2c4nccnc4c4ccc[n+]3c4c21` [Compound 5, pyrazino[2,3-f][1, 10]phenanthrolinebis(2-phenylquinoline)iridium(III) hexafluorophosphate]: in assay [3], the IC50 came to 21 µM and the “effect on fluorescence anisotropy / p53/hDM2 interaction” value was “decreased significantly”.

For `COc1cc2c(cc1OC(C)C)[C@H](c1ccc(Cl)cc1)N(c1ccc(N(C)C[C@H]3CC[C@H](N4CCN(C)C(=O)C4)CC3)cc1)C(=O)C2` [NVP-CGM097, reference compound], the “amount of precipitated hDM2 (pulled down with p53-Flag)” value in assay [1] (6 h of treatment) is reported as “decreased”. Also, the “expression of hDM2 protein” value in assay [2] (1 μM) is listed as “significantly increased”.

B1: fluorescein-labelled p53 peptide (p53 15-31 Flu) (peptide)
peptide: SQETFSDLWKLLPENNVC
modifications: N-terminal acetyl (Ac-); fluorescein on the C-terminal cysteine, C(Flu); C-terminal amide (-NH2)
notes: added C-terminal cysteine that carries the fluorescein; not part of p53 15-31; source: synthetic peptide, bought: Peptide Protein Research Ltd
Turning to B1, the binding result in assay [4] is on record as “binds”.
